Laboratory results from US20240390362A1, “METHODS OF TREATING ERYTHROPOIETIC PROTOPORPHYRIA, X-LINKED PROTOPORPHYRIA, OR CONGENITAL ERYTHROPOIETIC PORPHYRIA WITH A SOLID FORM OF BITOPERTIN” (Disc Medicine, Inc., priority 2021, published 2024).

How the values were obtained:
Type in all cases: cell-based
[1] = tested on: human cord blood-CD34+ cells; assay: CD34+ cells transduced with FECH shRNA lentivirus, differentiated to erythroid cells; flow cytometry of PPIX and surface markers; settings: 100 nM, 9 days differentiation
Procedure: To investigate the effects of GlyT1 inhibitors in human hematopoietic stem cells with an EPP phenotype, lentiviral vectors expressing shRNA of FECH were constructed (Table 4) and transduced at 25 MOI into human cord blood-CD34+ cells purchased from Stemexpress.
Transduced CD34+ cells were differentiated in the presence of Bitopertin (100 nM) or DMSO control into erythroid cells for 9 days in StemSpan SFEM II media supplemented with StemSpan Erythroid Expansion Supplement. The erythroid cell antigen profile was analyzed using cytofluorimetric strategy with the following surface markers: CD71 (PE Mouse Anti-Human CD71, BD Biosciences), glycophoryin A (APC Mouse Anti-Human CD235a, BD Biosciences).

[2] = tested on: clone 1-9 cells; assay: LC/MS/MS of 5-ALA, PPIX and heme levels in the EPP K562 cellular model
[3] = tested on: K562 clone-9 cells; assay: Cell viability by Vi-CELL XR Complete System in EPP K562 model; settings: 96 hours incubation
Procedure: 900 μL of K562 clone-9 cells at 2×10^5 cells/mL in IMDM media with 10% FBS and 1% PS were plated into a 24-well plate. After 24-hour incubation, 100 μL of compound in DMSO/media was added in different concentration. The final concentration of DMSO was 0.1%. The compound was incubated for 96 hours at 37° C. Cell viability and cell count were measured by Vi-CELL XR Complete System. Finally, the effect of the compound on PPIX level was determined by flow cytometry.

C[C@H](Oc1ccc(S(C)(=O)=O)cc1C(=O)N1CCN(c2ncc(C(F)(F)F)cc2F)CC1)C(F)(F)F [Bitopertin, [4-(3-fluoro-5-trifluoromethylpyridin-2-yl)piperazin-1-yl][5-methylsulfonyl-2-[((S)-2,2,2-trifluoro-1-methylethyl)oxy]phenyl]methanone]
effect on erythroid cell surface markers (CD71, glycophorin A) [1]: no negative effects | effect on Heme formation [2]: minimal effect | effect on cell viability [3]: no negative effects
